Data taken from EP0062704A1, “Cyclopropanecarboxylic-acid ester as an agent in the fight against larves of the Gasterophilidae family in Equidae” (HOECHST AKTIENGESELLSCHAFT, priority 1980, dated 1982).
Marks after values point to notes of the source that are not given here.

Assays:
[1] = tested on: Larven III der Magenbremse, Gasterophilus intestinalis; assay: In vitro test on larvae III of Gasterophilus intestinalis (5 min immersion, mortality count); details: 10 larvae immersed 5 min in 0,1 % active dilution, kept at about 37°C
From the text: Beispiel 2 : In vitro Test an Larven von Gasterophilus intestinalis
Die Verbindungen (S)-a-Cyan-3-phenoxybenzyl(1R)-cis-3-(2,2-dibromvinyl)-2,2-dimethylcyclopropancarboxylat, nachfolgend bezeichnet als Verbindung A, (S)-a-Cyan-3-phenoxybenzyl (1R)-cis-3-(2,2-dichlorvinyl)-2,2-dimethylcyclopropancarboxylat, nachfolgend bezeichnet als Verbindung B, (S)-o-Cyan-3-phenoxybenzyl(1R)-cis-3-(2', 2'-dichlor-1',2'-dibromäthyl)-2,2-dimethylcyclopropancarboxylat, nachfolgend bezeichnet als Verbindung C, werden in Zubereitungen nach Beispiel 1 a) so in Wasser verdünnt, daß die Verdünnungen 0,1 % der Wirkstoffe enthalten. Zum Vergleich wird Dimethyl-2,2,2-trichloro-1-hydroxyäthyl-phosphonat (Trichlorfon) in derselben Verdünnung verwendet.
Larven III der Magenbremse, Gasterophilus intestinalis, werden aus dem Magen eines geschlachteten Pferdes entnommen. Jeweils zehn Larven werden in Bechergläsern in die Verdünnungen für 5 Minuten eingetaucht. Zur Kontrolle werden 10 Larven in Wasser eingetaucht. Danach werden die Larven auf Filterpapier getrocknet und in Behälter aus Styropor verbracht, die unter einer Wärmelampe bei etwa 37°C aufbewahrt werden. Nach 1, 6, 24, 48, 72, 96 und 120 Stunden werden alle Larven untersucht und deren Mortalität protokolliert.

[2] = tested on: Gasterophilus intestinalis; assay: In vivo test in horses infested with stomach bots: G. intestinalis; details: 10 mg/kg by nasogastric tube; for %-Wirksamkeit: expelled and dead larvae as percent of all larvae present, horse; for noch im Magen festgeheftet: larvae at necropsy on day 7, horse; for Zahl der Larven im Kot Total: total of days 1-7, horse
Method: (§1) Beispiel 3: In vivo-Prüfung an Pferden mit Magendasselbefall
(§2) Zwei Pferde mit Körpergewichten von 190 kg und 142 kg werden mit den Verbindungen A bzw. C aus Beispiel II behandelt. Die Dosis beträgt 10 mg/kg Körpergewicht. Die sich aus der Dosis und der Konzentration der Arzneizubereitung nach Beispiel 2 zu errechnende Menge der Zubereitung wird im Volumenverhältnis 1 : 1 mit Wasser verdünnt und den Pferden mittels Nasenschlundsonde verabreicht.
(§3) Nach der Behandlung werden die Pferde in Einzelboxen aufgestellt. […] Vorhandene Dassellarven werden gezählt und ihre Artzugehörigkeit bestimmt. Am siebten Tag nach der Behandlung werden die Pferde getötet und der Magen-Darmtrakt auf das Vorhandensein noch angehefteter und toter Dassellarven untersucht.
(§4) Die Zahl der abgegangenen und toten Larven wird auf die Gesamtzahl vorhandener Larven prozentual bezogen und ihr Prozentsatz als "% Wirksamkeit" bezeichnet. Somit besagen 100 %, daß alle und 0 %, daß keine Larven abgetötet und abgetrieben werden.

[3] = tested on: Gasterophilus nasalis; assay: In vivo test in horses infested with stomach bots: G. nasalis; details: 10 mg/kg by nasogastric tube; for %-Wirksamkeit: expelled and dead larvae as percent of all larvae present, horse; for noch im Magen festgeheftet: larvae at necropsy on day 7, horse; for Zahl der Larven im Kot Total: total of days 1-7, horse
Method: as §1, §2, §3, §4

| Structure (SMILES) | Zahl toter Larven Stunden nach Behandlung ([1]; 1 h after treatment) | Zahl toter Larven Stunden nach Behandlung ([1]; 6 h after treatment) | Zahl toter Larven Stunden nach Behandlung ([1]; 24 h after treatment) | Zahl toter Larven Stunden nach Behandlung ([1]; 48 h after treatment) | Zahl toter Larven Stunden nach Behandlung ([1]; 72 h after treatment) | Zahl toter Larven Stunden nach Behandlung ([1]; 96 h after treatment) | Zahl toter Larven Stunden nach Behandlung ([1]; 120 h after treatment) | Zahl der Larven im Kot an den Tagen nach der Behandlung ([2]; day 1, horse) | Zahl der Larven im Kot an den Tagen nach der Behandlung ([2]; day 2, horse) | Zahl der Larven im Kot an den Tagen nach der Behandlung ([2]; day 3, horse) | Zahl der Larven im Kot an den Tagen nach der Behandlung ([2]; day 4, horse) | Zahl der Larven im Kot an den Tagen nach der Behandlung ([2]; day 5, horse) | Zahl der Larven im Kot an den Tagen nach der Behandlung ([2]; day 6, horse) | Zahl der Larven im Kot an den Tagen nach der Behandlung ([2]; day 7, horse) | %-Wirksamkeit [2] | noch im Magen festgeheftet [2] | Zahl der Larven im Kot Total [2] | Zahl der Larven im Kot an den Tagen nach der Behandlung ([3]; day 1, horse) | Zahl der Larven im Kot an den Tagen nach der Behandlung ([3]; day 2, horse) | Zahl der Larven im Kot an den Tagen nach der Behandlung ([3]; day 3, horse) | other results |
| --- | --- | --- | --- | --- | --- | --- | --- | --- | --- | --- | --- | --- | --- | --- | --- | --- | --- | --- | --- | --- | --- |
| COP(=O)(OC)C(O)C(Cl)(Cl)Cl (centres unmarked) [Trichlorfon, Dimethyl-2,2,2-trichloro-1-hydroxyäthyl-phosphonat, reference compound] | 6* | 7* | 4* | 5* | 9* | 6* | 6* |  |  |  |  |  |  |  |  |  |  |  |  |  |  |
| CC1(C)[C@H](C(=O)O[C@H](C#N)c2cccc(Oc3ccccc3)c2)[C@@H]1C=C(Br)Br [Verbindung A, (S)-a-Cyan-3-phenoxybenzyl(1R)-cis-3-(2,2-dibromvinyl)-2,2-dimethylcyclopropancarboxylat] | 10 | 10 | 10 | 10 | 10 | 10 | 10 | 2 | 16 | 18 | 5 | 0 | 0 | 0 | 93% | 3 | 41 | 1 | 4 | 1 | Zahl der Larven im Kot an den Tagen nach der Behandlung ([3]; day 4, horse): 0; Zahl der Larven im Kot an den Tagen nach der Behandlung ([3]; day 5, horse): 0; Zahl der Larven im Kot an den Tagen nach der Behandlung ([3]; day 6, horse): 0; Zahl der Larven im Kot an den Tagen nach der Behandlung ([3]; day 7, horse): 0; %-Wirksamkeit [3]: 100%; noch im Magen festgeheftet [3]: 0; Zahl der Larven im Kot Total [3]: 6 |
| CC1(C)[C@H](C(=O)O[C@H](C#N)c2cccc(Oc3ccccc3)c2)[C@@H]1C=C(Cl)Cl [Verbindung B, (S)-a-Cyan-3-phenoxybenzyl (1R)-cis-3-(2,2-dichlorvinyl)-2,2-dimethylcyclopropancarboxylat] | 10 | 10 | 10 | 10 | 10 | 10 | 10 |  |  |  |  |  |  |  |  |  |  |  |  |  |  |
| CC1(C)[C@H](C(=O)O[C@H](C#N)c2cccc(Oc3ccccc3)c2)[C@@H]1C(Br)C(Cl)(Cl)Br (stereo partly drawn) [Verbindung C, (S)-o-Cyan-3-phenoxybenzyl(1R)-cis-3-(2', 2'-dichlor-1',2'-dibromäthyl)-2,2-dimethylcyclopropancarboxylat] | 4 | 10 | 10 | 10 | 10 | 10 | 10 | 1 | 2 | 8 | 10 | 7 | 2 | 0 | 100% | 0 | 30 | 0 | 3 | 7 | Zahl der Larven im Kot an den Tagen nach der Behandlung ([3]; day 4, horse): 1; Zahl der Larven im Kot an den Tagen nach der Behandlung ([3]; day 5, horse): 0; Zahl der Larven im Kot an den Tagen nach der Behandlung ([3]; day 6, horse): 0; Zahl der Larven im Kot an den Tagen nach der Behandlung ([3]; day 7, horse): 0; %-Wirksamkeit [3]: 100%; noch im Magen festgeheftet [3]: 0; Zahl der Larven im Kot Total [3]: 11 |
